Test system: male rats
Conditions: rat, in vivo

Compound	effect on penile erections induced by 2 μg of the test peptides into the PVN	effect on test peptide induced penile erection	also measured
COC(=O)[C@@H](N)CCCNC(=N)N[N+](=O)[O-] [L-NAME, N^G -nitro-1-arginine methyl ester]	reduced in a dose dependent manner		
C[C@]12N[C@H](Cc3ccccc31)c1ccccc12 [MK 801, dizolcipine]		did not modify the penile erection	
OCCN1CCN(CC/C=C2/c3ccccc3Sc3ccc(C(F)(F)F)cc32)CC1 [cis-flupenthixol]		did not modify the penile erection	
CN1CC[C@]23c4c5ccc(O)c4O[C@H]2[C@@H](O)C=C[C@H]3[C@H]1C5 [morphine]	reduced in a dose-dependent manner		
ω-conotoxin-GVIA			effect on penile erection induced by 2 μg of the test peptides into the PVN: reduced penile erection

— US6211156A (priority 1999, dated 2001)
